From PubChem BioAssay AID248 (DTP/NCI, 2004)
Several values for one entry are separate records, joined by “and”; a condition that tells them apart may be missing. Identical values can stand only once. Toxic doses and inconclusive results are not listed. Cut-off read from the data, not from the text of the source: active = T/C of 150% or more; inactive = T/C below 125%.

System: L1210 leukemia ip in BDF1 mice, survival T/C
Test: NCI In Vivo Anticancer Drug Screen. Data for tumor model L1210 Leukemia (intraperitoneal) in B6D2F1 (BDF1) mice
Conditions: endpoint: mean survival time, higher = longer survival
How it was run: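 Read-out is survival time, reported as the treated-group measurement over the vehicle-control measurement.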

[1] = dose: 100.0 mg/kg/injection, schedule: Q01DX001 (ip), vehicle: saline with Tween-80
[2] = dose: 200.0 mg/kg/injection, schedule: Q01DX001 (ip), vehicle: saline with Tween-80
[3] = dose: 400.0 mg/kg/injection, schedule: Q01DX001 (ip), vehicle: saline with Tween-80
[4] = dose: 100.0 mg/kg/injection, schedule: Q01DX009 (ip), vehicle: Klucel (hydroxypropylcellulose) (HPC)
[5] = dose: 200.0 mg/kg/injection, schedule: Q01DX009 (ip), vehicle: Klucel (hydroxypropylcellulose) (HPC)
[6] = dose: 400.0 mg/kg/injection, schedule: Q01DX009 (ip), vehicle: Klucel (hydroxypropylcellulose) (HPC)
[7] = dose: 12.5 mg/kg/injection, schedule: Q01DX009 (ip), vehicle: saline
[8] = dose: 25.0 mg/kg/injection, schedule: Q01DX009 (ip), vehicle: saline
[9] = dose: 25.0 mg/kg/injection, schedule: Q04DX003 (ip), vehicle: saline
[10] = dose: 50.0 mg/kg/injection, schedule: Q04DX003 (ip), vehicle: saline
[11] = dose: 100.0 mg/kg/injection, schedule: Q01DX009 (ip), vehicle: saline
[12] = dose: 50.0 mg/kg/injection, schedule: Q01DX009 (ip), vehicle: saline

Measured: T/C

CCOC(=S)Nc1ccccc1[N+](=O)[O-]
inactive: dose: 100.0 mg/kg/injection, schedule: Q04DX002 (ip), vehicle: gum acacia 102 % of control | dose: 200.0 mg/kg/injection, schedule: Q04DX002 (ip), vehicle: gum acacia 105 % of control | dose: 400.0 mg/kg/injection, schedule: Q04DX002 (ip), vehicle: gum acacia 102 % of control

Oc1cc(-c2ccccc2)c(-c2ccccc2)c(-c2ccccc2)c1-c1ccccc1
inactive: [1] 100 % of control | [2] 90 % of control | [3] 88 % of control

CCCCC1C(=O)N2c3ccccc3-c3ccccc3N2C1=O
inactive: dose: 75.0 mg/kg/injection, schedule: Q01DX001 (ip), vehicle: saline 99 % of control | dose: 150.0 mg/kg/injection, schedule: Q01DX001 (ip), vehicle: saline 96 % of control | dose: 300.0 mg/kg/injection, schedule: Q01DX001 (ip), vehicle: saline 101 % of control

CC(C)(O)CC1=C(O)c2ccccc2C(=O)C1=O
inactive: dose: 50.0 mg/kg/injection, schedule: Q01DX001 (ip), vehicle: carboxymethylcellulose (CMC) 105 % of control | dose: 100.0 mg/kg/injection, schedule: Q01DX001 (ip), vehicle: carboxymethylcellulose (CMC) 97 % of control | dose: 200.0 mg/kg/injection, schedule: Q01DX001 (ip), vehicle: carboxymethylcellulose (CMC) 105 % of control | dose: 400.0 mg/kg/injection, schedule: Q01DX001 (ip), vehicle: carboxymethylcellulose (CMC) 105 % of control

CC(C)(C)/C=N/Nc1ccc([N+](=O)[O-])cc1[N+](=O)[O-]
inactive: [4] 108 % of control | [5] 106 % of control | [6] 102 % of control

CC1(C)CC(NC(=O)NCCCl)CC(C)(C)N1
inactive: [7] 98 % of control | dose: 12.5 mg/kg/injection, schedule: Q04DX003 (ip), vehicle: saline 101 % of control | [8] 95 % of control | [9] 114 % of control | [10] 104 % of control

Clc1nnc(Nc2ccccc2)c2ccccc12
inactive: [4] 96 % of control | [5] 93 % of control | dose: 200.0 mg/kg/injection, schedule: Q04DX003 (ip), vehicle: saline 93 % of control | dose: 400.0 mg/kg/injection, schedule: Q04DX003 (ip), vehicle: saline 91 % of control

COc1cc(Oc2c(OC)cc(C(C)=O)cc2OC)cc(OC)c1OC
inactive: dose: 100.0 mg/kg/injection, schedule: Q04DX003 (ip), vehicle: saline with Tween-80 101 % of control | dose: 200.0 mg/kg/injection, schedule: Q04DX003 (ip), vehicle: saline with Tween-80 97 % of control | dose: 400.0 mg/kg/injection, schedule: Q04DX003 (ip), vehicle: saline with Tween-80 97 % of control

C=C(C(=O)c1ccccc1)C(NC(C)(C)C)c1ccccc1 (stereo unspecified)
inactive: dose: 5.0 mg/kg/injection, schedule: Q01DX001 (ip), vehicle: saline 95 % of control | dose: 10.0 mg/kg/injection, schedule: Q01DX001 (ip), vehicle: saline 98 % of control | dose: 20.0 mg/kg/injection, schedule: Q01DX001 (ip), vehicle: saline 95 % of control

O=C(Nc1ccc(Cl)c(Cl)c1)Nc1ccc(Oc2ccc(Cl)cc2Cl)cc1S(=O)(=O)O
inactive: dose: 100.0 mg/kg/injection, schedule: Q04DX003 (ip), vehicle: alcohol 100 % of control | dose: 200.0 mg/kg/injection, schedule: Q04DX003 (ip), vehicle: alcohol 103 % of control

CCC(=O)N(CC)CC
inactive: dose: 50.0 mg/kg/injection, schedule: Q01DX001 (ip), vehicle: saline 102 % of control | dose: 100.0 mg/kg/injection, schedule: Q01DX001 (ip), vehicle: saline 93 % of control | dose: 400.0 mg/kg/injection, schedule: Q01DX001 (ip), vehicle: saline 93 % of control

OC(Cc1ccnc2ccccc12)C(Cl)(Cl)Cl (stereo unspecified)
inactive: [11] 95 % of control | dose: 200.0 mg/kg/injection, schedule: Q01DX009 (ip), vehicle: saline 101 % of control | dose: 400.0 mg/kg/injection, schedule: Q01DX009 (ip), vehicle: saline 95 % of control

[Cl][Pb]([Cl])([c]1ccccc1)[c]1ccccc1
inactive: dose: 12.5 mg/kg/injection, schedule: Q04DX002 (ip), vehicle: Klucel (hydroxypropylcellulose) (HPC) 88 % of control | dose: 25.0 mg/kg/injection, schedule: Q04DX002 (ip), vehicle: Klucel (hydroxypropylcellulose) (HPC) 88 % of control | dose: 50.0 mg/kg/injection, schedule: Q04DX002 (ip), vehicle: Klucel (hydroxypropylcellulose) (HPC) 91 % of control

CC1=C(CCCO)/C(=N/Nc2ccc([N+](=O)[O-])cc2[N+](=O)[O-])CCC1
inactive: dose: 25.0 mg/kg/injection, schedule: Q04DX002 (ip), vehicle: saline with Tween-80 97 % of control | [1] 105 % of control | [2] 87 % of control | [3] 92 % of control

O=C(OC1c2cccc3cccc(c23)C1O)c1ccccc1 (stereo unspecified)
inactive: dose: 100.0 mg/kg/injection, schedule: Q04DX003 (ip), vehicle: other 95 % of control | dose: 200.0 mg/kg/injection, schedule: Q04DX003 (ip), vehicle: other 93 % of control | dose: 400.0 mg/kg/injection, schedule: Q04DX003 (ip), vehicle: other 90 % of control

COc1ccc2c(ccc[n+]2C)c1
inactive: dose: 11.0 mg/kg/injection, schedule: Q01DX009 (ip), vehicle: saline 103 % of control | [7] 102 % of control | dose: 12.5 mg/kg/injection, schedule: Q04DX003 (ip), vehicle: saline with Tween-80 96 % of control | dose: 16.5 mg/kg/injection, schedule: Q01DX009 (ip), vehicle: saline 117 % of control | [8] 109 % of control and 110 % of control | dose: 25.0 mg/kg/injection, schedule: Q04DX003 (ip), vehicle: saline with Tween-80 102 % of control | dose: 33.0 mg/kg/injection, schedule: Q01DX009 (ip), vehicle: saline 113 % of control | dose: 37.5 mg/kg/injection, schedule: Q01DX009 (ip), vehicle: saline 115 % of control | [12] 115 % of control and 87 % of control | dose: 50.0 mg/kg/injection, schedule: Q04DX003 (ip), vehicle: saline with Tween-80 100 % of control | dose: 75.0 mg/kg/injection, schedule: Q01DX001 (ip), vehicle: carboxymethylcellulose (CMC) 108 % of control

CCCCCCSc1ccc2c(cc1=O)C(NC(C)=O)CCc1cc(OC)c(OC)c(OC)c1-2 (stereo unspecified)
inactive: dose: 12.5 mg/kg/injection, schedule: Q04DX002 (ip), vehicle: saline 95 % of control | dose: 25.0 mg/kg/injection, schedule: Q04DX002 (ip), vehicle: saline 95 % of control | dose: 50.0 mg/kg/injection, schedule: Q04DX002 (ip), vehicle: saline 104 % of control

CC1C2Cc3ccc(O)cc3C1(C)CCN2C/C=C\Cl (stereo unspecified)
inactive: dose: 100.0 mg/kg/injection, schedule: Q01DX009 (ip), vehicle: saline with Tween-80 94 % of control | dose: 200.0 mg/kg/injection, schedule: Q01DX009 (ip), vehicle: saline with Tween-80 95 % of control | dose: 400.0 mg/kg/injection, schedule: Q01DX009 (ip), vehicle: saline with Tween-80 95 % of control

S=P(Nc1ccccc1)(Nc1ccccc1)Nc1ccccc1
inactive: dose: 50.0 mg/kg/injection, schedule: Q01DX009 (ip), vehicle: Klucel (hydroxypropylcellulose) (HPC) 96 % of control | [4] 98 % of control | [5] 98 % of control

Brc1cccc[n+]1-c1cc(-[n+]2ccccc2Br)cc(-[n+]2ccccc2Br)c1
inactive: dose: 1.17 mg/kg/injection, schedule: Q01DX001 (ip), vehicle: other 95 % of control | dose: 2.34 mg/kg/injection, schedule: Q01DX001 (ip), vehicle: other 102 % of control | dose: 4.69 mg/kg/injection, schedule: Q01DX001 (ip), vehicle: other 101 % of control

C=CCOC(=O)Nc1cccc2ccccc12
inactive: dose: 100.0 mg/kg/injection, schedule: Q04DX002 (ip), vehicle: Klucel (hydroxypropylcellulose) (HPC) 91 % of control | dose: 200.0 mg/kg/injection, schedule: Q04DX002 (ip), vehicle: Klucel (hydroxypropylcellulose) (HPC) 94 % of control | dose: 400.0 mg/kg/injection, schedule: Q04DX002 (ip), vehicle: Klucel (hydroxypropylcellulose) (HPC) 94 % of control

COc1ccc(/C=N/NC(=O)COCC(=O)N/N=C/c2ccc(OC)c(OC)c2)cc1OC
inactive: [4] 101 % of control | [5] 95 % of control | [6] 92 % of control

OCCN1CCC(CCCC2CCNCC2)CC1
inactive: dose: 10.0 mg/kg/injection, schedule: Q01DX Z (ip), vehicle: saline 97 % of control | [8] 102 % of control | [9] 111 % of control | dose: 30.0 mg/kg/injection, schedule: Q01DX Z (ip), vehicle: saline 102 % of control | [12] 96 % of control | [10] 98 % of control | [11] 91 % of control | dose: 100.0 mg/kg/injection, schedule: Q04DX003 (ip), vehicle: saline 108 % of control
